Measurements from ChEMBL document CHEMBL1148230, “Synthesis, characterization and evaluation of pro-drugs of VLA-4 antagonists” (Bioorg Med Chem Lett, 2004).
In brackets after ≈: the same amount, converted by molar mass.

Legend:
[1] = Permeability in Caco-2 assay at 10E-6; assay type: ADME; settings: human, read-out: Activity
[2] = Solubility in SGF buffer system; assay type: physicochemical
[3] = Solubility in SIBLM buffer system; assay type: physicochemical
[4] = Solubility in SIF buffer system; assay type: physicochemical
HUVEC = assay: Inhibitory activity against VLA-4 mediated adhesion to human vein endothelial cells; assay type: functional, cell-based
[5] = Log Doctanol value by HPLC peak area analysis of aqueous and octanol phases at pH 4.5-6.5; assay type: physicochemical
[6] = Log Doctanol value by HPLC peak area analysis of aqueous and octanol phases at pH 6.5; assay type: physicochemical; settings: octanol/aqueous phase, read-out: LogD6.5
[7] = Stability in rat plasma was determined; assay type: ADME
[8] = Log Doctanol value by HPLC peak area analysis of aqueous and octanol phases at pH 4.5; assay type: physicochemical; settings: octanol/aqueous phase
[9] = Solubility in SIF buffer system; ND= not detectable; assay type: physicochemical; settings: simulated gi fluid
[10] = Solubility in SGF buffer system; ND=not detectable; assay type: physicochemical; settings: simulated gi fluid
[11] = octanol/aqueous phase, read-out: logD

Row | SMILES | Papp [1] [×10⁻⁶ cm/s] | solubility [2] [µg/mL] | solubility [3] [µg/mL] | solubility [4] [µg/mL] | IC50 (HUVEC) [nM] | logD [5, 11] | logD [6] | half-life [7] [min] | logD [8] | solubility [9] | logD ([5]; octanol/water) | solubility [10]
1 | CN(C)C(=O)Oc1ccc(C[C@H](NC(=O)[C@H]2N(S(=O)(=O)c3ccn(C)n3)CSC2(C)C)C(=O)O)cc1 | > 0.07 | 3300 (≈ 6120 µM) | 20000 (≈ 37100 µM) | > 20000 | 6 |  |  |  |  |  |  | 
2 | COCCOCCOC(=O)[C@H](Cc1ccc(OC(=O)N(C)C)cc1)NC(=O)[C@H]1N(S(=O)(=O)c2ccn(C)n2)CSC1(C)C | 2.03 | 2830 (≈ 4410 µM) | 4650 (≈ 7250 µM) | 2400 (≈ 3740 µM) |  | 1.41 | 1.42 | 13.1 |  |  |  | 
3 | CN(C)C(=O)Oc1ccc(C[C@H](NC(=O)[C@H]2N(S(=O)(=O)c3ccn(C)n3)CSC2(C)C)C(=O)OCOC(=O)C(C)(C)C)cc1 | 2.49 | 13 (≈ 19.9 µM) | 119 (≈ 182 µM) |  |  |  | 3.17 | 2.82 | 3.1 | Not detectable |  | 
4 | CCOC(=O)[C@H](Cc1ccc(OC(=O)N(C)C)cc1)NC(=O)[C@H]1N(S(=O)(=O)c2ccn(C)n2)CSC1(C)C | 4.24 | 629 (≈ 1110 µM) | 1180 (≈ 2080 µM) | 341 (≈ 601 µM) |  |  | 2 | 8.08 | 2.27 |  |  | 
5 | CC(C)OC(=O)[C@H](Cc1ccc(OC(=O)N(C)C)cc1)NC(=O)[C@H]1N(S(=O)(=O)c2ccn(C)n2)CSC1(C)C | 6.83 | 94.9 (≈ 163 µM) | 158 (≈ 272 µM) | 45.5 (≈ 78.2 µM) |  |  | 2.47 | 10.9 | 2.45 |  |  | 
6 | CN(C)C(=O)Oc1ccc(C[C@H](NC(=O)[C@H]2N(S(=O)(=O)c3ccn(C)n3)CSC2(C)C)C(=O)OCC(C)(C)C)cc1 | 4.52 | 0.334 (≈ 0.548 µM) | 6.97 (≈ 11.4 µM) |  |  | 3.43 |  | 53.4 |  | Not detectable | 3.42 | 
7 | CN(C)C(=O)Oc1ccc(C[C@H](NC(=O)[C@H]2N(S(=O)(=O)c3ccn(C)n3)CSC2(C)C)C(=O)OCCOc2ccccc2)cc1 | 7.58 |  | 24 (≈ 36.4 µM) | 0.506 (≈ 0.767 µM) |  |  | 3.34 | 1.6 | 3.21 |  |  | Not detectable
